From paper PMC12040169 (PLOS Biology, 2025) come the findings set out here.

A short description of the first data set: in vitro. The settings on record: human, hela cells, % viability.
Broadly, the viability is a read-out of living cells in per cent, often relative to untreated cells. For the compound `COc1cccc(Oc2nccnc2-c2cccs2)c1` [CBK107059], the viability at 28.5 h, 10 µM was found to be 91.6%.

For the compound `Cn1cc(-c2nccnc2OCc2ccccn2)cn1` [CBK107067], the viability at 28.5 h, 10 µM was determined as 97.2%.

With `COc1nccnc1-c1cnn(C)c1` [CBK107069], the viability at 28.5 h, 10 µM stood at 89.6%.

Regarding `COc1cccc(Oc2nccnc2-c2cnn(C)c2)c1` [CBK107071], the viability at 28.5 h, 10 µM came out at 98%.

For the compound `Cn1cc(-c2nccnc2OC2CCCCC2)cn1` [CBK107072], the viability at 28.5 h, 10 µM was 99.7%.

`Cn1cc(-c2nccnc2OCCn2cccc2)cn1` [CBK107079]: the viability at 28.5 h, 10 µM was determined as 88.6%.

In the case of `Cn1cc(-c2nccnc2OCCOc2ccccc2)cn1` [CBK107080], the viability at 28.5 h, 10 µM was 94.9%.

`O=C1c2ccccc2C(=O)N1CCOc1nccnc1-c1cnn(Cc2ccccc2)c1` [CBK107089]: the viability at 28.5 h, 10 µM amounted to 102%.

`COc1nccnc1-c1cnn(Cc2ccccc2)c1` [CBK107090]: the viability at 28.5 h, 10 µM was 101%.

As for `c1ccc(Cn2cc(-c3nccnc3OC3CCCCC3)cn2)cc1` [CBK107092], the viability at 28.5 h, 10 µM turned out to be 93%.

Turning to `c1ccc(Cn2cc(-c3nccnc3OCCn3ccnc3)cn2)cc1` [CBK107102], the viability at 28.5 h, 10 µM is 95.5%.

In the case of `Clc1ccc(-c2nccnc2OCc2ccccn2)cc1Cl` [CBK107108], the viability at 28.5 h, 10 µM was found to be 94.7%.

Take `CCOC(=O)c1ccc(-c2nccnc2Oc2cccc(OC)c2)cc1` [CBK107115]: the viability at 28.5 h, 10 µM came to 81%.

With `O=C(NCCCNC1CCc2[nH]c3ccccc3c2C1)c1cccc(Br)c1` (stereo not shown) [CBK107130T], the viability at 28.5 h, 10 µM turned out to be 86.9%.

Turning to `CC1CCCCN1CCCNC(=O)c1ccc(-c2nc(-c3ccc(C#N)cc3)cnc2N)cc1` (stereo not shown) [CBK107139], the viability at 28.5 h, 10 µM was 111%.

For the compound `CC(C)Nc1cc(SCc2ccc(F)cc2)ncn1` [CBK107158], the viability at 28.5 h, 10 µM came out at 93.9%.

On to `CC(C)Nc1cc(SCc2cccc(C(F)(F)F)c2)ncn1` [CBK107161], for which the viability at 28.5 h, 10 µM is 88.2%.

As to `Clc1ccc(CSc2nccnc2N2CCCC2)cc1` [CBK107177], the viability at 28.5 h, 10 µM worked out at 95.9%.

As to `FC(F)(F)c1cccc(CSc2cc(N3CCCC3)ncn2)c1` [CBK107184], the viability at 28.5 h, 10 µM turned out to be 91.1%.

For the compound `FC(F)(F)c1nc2ccccc2nc1SC1CCCCC1` [CBK107205], the viability at 28.5 h, 10 µM came out at 97.2%.

Take `CNC(=O)CSc1nc2ccccc2nc1C(F)(F)F` [CBK107206]: the viability at 28.5 h, 10 µM is 95.9%.

Consider `C[C@@H]1CN[C@@H](C)CN1Cc1cc(NS(=O)(=O)c2ccccc2Cl)cc2ccoc12` [CBK107211T], for which the viability at 28.5 h, 10 µM was 98.6%.

Take `Fc1ccc(CCN2CCCCC2c2cc3ccccc3[nH]2)cc1` (stereo not shown) [CBK107227T]: the viability at 28.5 h, 10 µM stood at 89.6%.

With `O=C(c1[nH]nc(O)c1Cc1c(Cl)cccc1Cl)N1CCOCC1` [CBK107228], the viability at 28.5 h, 10 µM came to 101%.

Turning to `CCCc1n[nH]c(-c2cc(C(F)(F)F)ccc2F)c1C(=O)OCC` [CBK107231], the viability at 28.5 h, 10 µM is 94.6%.

Take `O=C(Nc1cccnc1)c1cc2cc(Cl)ccc2[nH]1` [CBK107261]: the viability at 28.5 h, 10 µM was found to be 88.7%.

`O=C(NCc1ccccn1)c1cc2cc(Cl)ccc2[nH]1` [CBK107265]: the viability at 28.5 h, 10 µM came to 88.2%.

For the compound `CN1CCN(C(=O)c2cc(C(C)(C)C)nn2Cc2ccc(Cl)cc2Cl)CC1` [CBK107285], the viability at 28.5 h, 10 µM worked out at 109%.

In the case of `CN(C)CCCNC(=O)c1cc(C(C)(C)C)nn1Cc1ccc(Cl)cc1Cl` [CBK107286], the viability at 28.5 h, 10 µM was found to be 102%.

As to `CC(C)(C)c1cc(C(=O)NCc2ccccn2)n(Cc2ccc(Cl)cc2Cl)n1` [CBK107288], the viability at 28.5 h, 10 µM was found to be 101%.

Regarding `CC(C)(N)CNC(=O)c1cc(C(C)(C)C)nn1Cc1ccc(Cl)cc1Cl` [CBK107296], the viability at 28.5 h, 10 µM worked out at 95.6%.

With `CN(C)CCNC(=O)Cc1csc(-c2ccc(Cl)cc2)n1` [CBK107299], the viability at 28.5 h, 10 µM worked out at 96.2%.

Take `CN1CCN(C(=O)Cc2csc(-c3ccc(Cl)cc3)n2)CC1` [CBK107301]: the viability at 28.5 h, 10 µM was found to be 104%.

Regarding `O=C(Cc1csc(-c2ccc(Cl)cc2)n1)NCCN1CCCC1` [CBK107306], the viability at 28.5 h, 10 µM worked out at 90%.

For the compound `O=C(Cc1csc(-c2ccc(Cl)cc2)n1)N1CCN(c2ccccn2)CC1` [CBK107310], the viability at 28.5 h, 10 µM is 97%.

As to `CN(C)CCN(C)C(=O)c1cc2cc(OC(F)(F)F)ccc2[nH]1` [CBK107316], the viability at 28.5 h, 10 µM was determined as 91.5%.

For the compound `COc1ccc(Nc2cc(Cl)ccc2C(=O)N2CCN(c3ncccn3)CC2)cn1` [CBK107334], the viability at 28.5 h, 10 µM amounted to 89.9%.

`O=C(Nc1cccnc1)c1cnc2cc(Cl)ccc2c1O` [CBK107353]: the viability at 28.5 h, 10 µM was determined as 82.6%.

On to `CN(C)CC(C)(C)CNC(=O)c1cnc2cc(Cl)ccc2c1O` [CBK107357], for which the viability at 28.5 h, 10 µM came out at 97%.

Regarding `CC(C)(N)CNC(=O)c1cnc2cc(Cl)ccc2c1O` [CBK107360], the viability at 28.5 h, 10 µM stood at 101%.

As for `NCCNC(=O)c1cc2cc(OC(F)(F)F)ccc2[nH]1` [CBK107368], the viability at 28.5 h, 10 µM was 118%.

On to `O=C(Nc1ccncc1)c1cc2cc(OC(F)(F)F)ccc2[nH]1` [CBK107369], for which the viability at 28.5 h, 10 µM turned out to be 89.3%.

Regarding `CCCc1c(C(=O)N2CCN(C)CC2)cnn1-c1cc(Cl)cc(Cl)c1` [CBK107375], the viability at 28.5 h, 10 µM came to 103%.

`CCCc1c(C(=O)NCC(C)(C)CN(C)C)cnn1-c1cc(Cl)cc(Cl)c1` [CBK107381]: the viability at 28.5 h, 10 µM was 94.3%.

For `Cc1c(C(=O)Nc2ccncc2)nnn1-c1cccc(C(F)(F)F)c1` [CBK107390], the viability at 28.5 h, 10 µM worked out at 102%.

Turning to `Cc1c(C(=O)NCc2ccncc2)nnn1-c1cccc(C(F)(F)F)c1` [CBK107396], the viability at 28.5 h, 10 µM came to 88.7%.

Regarding `CN(C)CC(C)(C)CNC(=O)c1cc(C(=O)c2ccc(Cl)cc2Cl)c[nH]1` [CBK107416], the viability at 28.5 h, 10 µM was 94.8%.

In the case of `O=C(c1c[nH]c(C(=O)N2CCN(c3ncccn3)CC2)c1)c1ccc(Cl)cc1Cl` [CBK107418], the viability at 28.5 h, 10 µM worked out at 89.4%.

Take `CN1CCN(NC(=O)c2cc(C(=O)c3ccc(Cl)cc3Cl)c[nH]2)CC1` [CBK107420]: the viability at 28.5 h, 10 µM amounted to 91.4%.

Take `CN1CCN(C(=O)c2cnc3cc(C(F)(F)F)ccc3c2O)CC1` [CBK107423]: the viability at 28.5 h, 10 µM amounted to 105%.

`CN(C)CC(C)(C)CNC(=O)c1cnc2cc(C(F)(F)F)ccc2c1O` [CBK107427]: the viability at 28.5 h, 10 µM came out at 97.9%.

On to `CC(C)(CN1CCOCC1)NC(=O)c1cnc2cc(C(F)(F)F)ccc2c1O` [CBK107429], for which the viability at 28.5 h, 10 µM came to 102%.

Turning to `COc1ccc(Nc2cc(Cl)ccc2C(=O)Nc2ccncc2)cn1` [CBK107434], the viability at 28.5 h, 10 µM came out at 96.3%.

For `O=C(Nc1ccncc1)c1cnn(-c2ccc(Cl)cc2)c1C(F)(F)F` [CBK107441], the viability at 28.5 h, 10 µM is 95.5%.

As to `O=C(Nc1ccc(OC(F)F)cc1)Nc1c(Br)cnc2cccnc12` [CBK107632], the viability at 28.5 h, 10 µM is 87.8%.

Regarding `O=C(Nc1ccc2oc(-c3ccccc3)nc2c1)C1CCCO1` (stereo not shown) [CBK107724], the viability at 28.5 h, 10 µM was 84.1%.

On to `CCOc1cc(OCC)nc(Oc2ccc(C(=O)OC)cc2)n1` [CBK107733], for which the viability at 28.5 h, 10 µM is 87.2%.

For `Fc1ccc(OCCCN2CCC3(CC2)OCCc2c3[nH]c3ccccc23)cc1` [CBK107736], the viability at 28.5 h, 10 µM was determined as 77%.

Turning to `CNC(=O)CSc1nccnc1N1CCCC1` [CBK107748], the viability at 28.5 h, 10 µM turned out to be 93.6%.

In the case of `Cc1ccc(Nc2cncc(-c3ccc(O)cc3)n2)cc1Cl` [CBK107802], the viability at 28.5 h, 10 µM is 99.9%.

As for `Oc1ccc(-c2cncc(Nc3ccc(Br)c(Cl)c3)n2)cc1` [CBK107806], the viability at 28.5 h, 10 µM was 89.4%.

With `CCC(=O)c1c(CC)n[nH]c1-c1c(Cl)cccc1Cl` [CBK107819], the viability at 28.5 h, 10 µM stood at 96.1%.

Turning to `COc1ccccc1NC(=O)c1[nH]nc(O)c1Cc1c(Cl)cccc1Cl` [CBK107846], the viability at 28.5 h, 10 µM is 90.2%.

For the compound `CC(C)Nc1nc2cc(Cl)c(Cl)cc2nc1SCCC(=O)O` [CBK107860], the viability at 28.5 h, 10 µM amounted to 96.1%.

Take `O=C(O)CCSc1nccc(C(F)(F)F)n1` [CBK107864]: the viability at 28.5 h, 10 µM is 87.5%.

Turning to `O=C(O)CCSc1nc2ccccc2nc1C(F)(F)F` [CBK107866], the viability at 28.5 h, 10 µM was found to be 93.7%.

For the compound `CC1(OCCCO)SC(NC2CCCCCC2)=NC1=O` (stereo not shown) [CBK107927], the viability at 28.5 h, 10 µM came to 91.5%.

As for `Oc1n[nH]c(-c2ccccc2Cl)c1Cc1c(Cl)cccc1Cl` [CBK107935], the viability at 28.5 h, 10 µM is 84.1%.

`Cc1ccc(C)c2[nH]c(=O)c(CN(CCN3CCOCC3)Cc3nnnn3C3CCCCC3)cc12` [CBK108116]: the viability at 28.5 h, 10 µM came out at 85.3%.

Turning to `COc1cc2cc(CN(Cc3cccnc3)C(=O)Nc3ccc(F)cc3)c(=O)[nH]c2cc1OC` [CBK108193], the viability at 28.5 h, 10 µM was 93.3%.

In the case of `CCc1cc2cc3c(cc2nc1SCC(=O)Nc1nc(C)c(C)s1)OCO3` [CBK108548], the viability at 28.5 h, 10 µM stood at 94.8%.

For the compound `Cc1cccc2cc(CN(Cc3cccnc3)C(=O)Nc3ccccc3Cl)c(=O)[nH]c12` [CBK108869], the viability at 28.5 h, 10 µM was 97.9%.

`Cc1ccc2cc(CN(Cc3ccc4c(c3)OCO4)Cc3nnnn3Cc3ccco3)c(=O)[nH]c2c1` [CBK108949]: the viability at 28.5 h, 10 µM turned out to be 93.9%.

On to `Cc1cc2cc(CN(CC3CCCO3)C(=O)C3CC3)c(Cl)nc2cc1C` (stereo not shown) [CBK109881], for which the viability at 28.5 h, 10 µM was determined as 101%.

As to `O=C1c2ccccc2CN1c1ccc(Cl)cc1Cl` [CBK109908], the viability at 28.5 h, 10 µM was found to be 95%.

On to `COc1ccc2c(c1OC)C(=O)N1c3ccccc3COC21` (stereo not shown) [CBK109960], for which the viability at 28.5 h, 10 µM is 103%.

For `O=C(O)c1cc(S(=O)(=O)Nc2ccccc2)ccc1O` [CBK109969], the viability at 28.5 h, 10 µM was found to be 83.2%.

On to `CC(=O)OC(c1ccccc1)c1nc2ccccc2[nH]1` (stereo not shown) [CBK110141], for which the viability at 28.5 h, 10 µM worked out at 97.1%.

On to `O=C(O)CSc1cccc([N+](=O)[O-])c1` [CBK110160], for which the viability at 28.5 h, 10 µM stood at 101%.

As to `O=C(Nc1ccccc1Cl)C1CCCN1S(=O)(=O)c1ccc(F)cc1` (stereo not shown) [CBK110161], the viability at 28.5 h, 10 µM worked out at 89.1%.

Staying with this data set, now noted: human, hela cells, % viability, bulk resorufin, single well.
For `COc1ccc(CCNC(=O)c2cccc(-c3ccc4c(c3)COC3(CCNCC3)O4)c2)cc1OC` [CBK110024], the viability at 28.5 h, 10 µM turned out to be 116%.

In the case of `COc1cc(CNC(=O)c2cccc(-c3ccc4c(c3)COC3(CCNCC3)O4)c2)cc(OC)c1OC` [CBK110087], the viability at 28.5 h, 10 µM was determined as 87.8%.
